Here are results for nine compounds from patent US20170368134A1, “PROTEASOME INHIBITORS FOR TREATING A DISORDER RELATED TO AN ACCUMULATION OF NON-DEGRADED ABNORMAL PROTEIN OR A CANCER” (UNIVERSITÉ D'AIX-MARSEILLE, priority 2015, published 2017).

One experiment concerns progerin. Put plainly: Western blot of progerin levels in HGPS fibroblasts. The format is cell-based, human. Particulars: HGPS fibroblasts; for progerin clearance / suppression of progerin accumulation compared with MG132: 10 μM, 48 h (FIG. 1C); for effect on MG132-induced progerin clearance (co-treatment with MG132): 48 h, added together with MG132; for progerin expression levels, inhibitor alone: alone at high doses. As for the experimental part:
HGPS fibroblasts (AG01972: person, AG11498: person) were obtained from the Coriell Cell Repository. Cells were cultured in Dulbecco's modified Eagle's medium (Life Technologies) supplemented with 15% fetal bovine serum (Life Technologies), 2 mM L-glutamine (Life Technologies) and 1× penicillin-streptomycin (Life Technologies) at 37° C. in a humidified atmosphere containing 5% CO2. […]
(§1) Total fibroblast proteins were extracted in 200 μL of NP40 Cell Lysis buffer (Invitrogen, Carlsbad, Calif.) containing Protease and Phosphatase Inhibitor Cocktail (Thermo Scientific). Alternatively, cells were lysed with urea (8 M urea, 5 mM dithiothreitol, 150 mM NaCl, 50 mM Tris-Cl pH 7.5, protease and phosphatase Inhibitor Cocktail (Thermo Scientific)). Cells were sonicated twice (30 sec each), incubated at 4° C. for 30 minutes and then centrifuged at 10,000 g for 10 minutes. Protein concentration was evaluated with the bicinchoninic acid technique (Pierce BCA Protein Assay Kit), absorbance at 562 nm is measured using nanodrop 1000 (Thermo Fisher Scientific Inc.) Equal amounts of proteins (40 μg) were loaded onto 10% Tis-Glycine gel (Criterion™ XT precast gel) using XT Tricine running Buffer (Biorad, USA). After electrophoresis, gels were electro transferred onto nitrocellulose membranes or Immobilon-FL polyvinylidene fluoride membranes (Millipore), blocked in Odyssey Blocking Buffer diluted 1:1 in PBS for 1 hour at room temperature, and incubated overnight at 4° C. or 2 hours at room temperature with various primary antibodies. Blots were washed with TBS-T buffer [20 mM tris (pH 7.4), 150 mM NaCl, and 0.05% Tween 20] and incubated with 1:10,000 IR-Dye 800-conjugated secondary donkey anti-goat or IR-Dye 700-conjugated secondary anti-mouse antibodies (LI-COR Biosciences) in Odyssey blocking buffer (LI-COR Biosciences). For IR-Dye 800 and IR-Dye 700 detection, an Odyssey Infrared Imaging System (LI-COR Biosciences) was used. GAPDH, α-tubulin or β-actin were used as a total cellular protein loading control.

A further experiment concerns the target T1, proteasome (Homo sapiens, UniProt P28072+P28074+Q99436).
T1 construct: The proteasome activities were determined in HGPS and control cells; endogenous in cells; host or cells: HGPS fibroblasts (AG01972, AG11498, 5968)
T1 sequence (P28074 60-263): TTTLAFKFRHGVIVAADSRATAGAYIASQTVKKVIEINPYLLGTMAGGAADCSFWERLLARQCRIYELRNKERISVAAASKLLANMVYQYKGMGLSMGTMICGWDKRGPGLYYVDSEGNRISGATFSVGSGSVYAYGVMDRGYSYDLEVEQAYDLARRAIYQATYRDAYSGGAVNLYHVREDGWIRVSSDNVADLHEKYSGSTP
T1 sequence (Q99436 44-277): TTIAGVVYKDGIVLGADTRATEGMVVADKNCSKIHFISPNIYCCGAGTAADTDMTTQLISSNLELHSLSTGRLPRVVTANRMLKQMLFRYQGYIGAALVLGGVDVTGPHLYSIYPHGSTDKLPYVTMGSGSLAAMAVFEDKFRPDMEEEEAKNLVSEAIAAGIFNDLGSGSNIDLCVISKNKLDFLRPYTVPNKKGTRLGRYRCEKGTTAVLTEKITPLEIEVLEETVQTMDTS
T1 sequence (P28072 1-239): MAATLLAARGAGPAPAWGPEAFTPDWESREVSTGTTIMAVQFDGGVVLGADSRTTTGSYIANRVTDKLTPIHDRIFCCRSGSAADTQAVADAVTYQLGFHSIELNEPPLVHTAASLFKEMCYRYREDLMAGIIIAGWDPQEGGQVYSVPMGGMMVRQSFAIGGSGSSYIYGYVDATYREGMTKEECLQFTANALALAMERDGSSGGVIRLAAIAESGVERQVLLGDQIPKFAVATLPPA
Put plainly: Proteasome-Glo cell-based proteasome activities (chymotrypsin-like, trypsin-like, caspase-like) in HGPS cells. Particulars: HGPS cells treated with the autophagy inhibitor.

The test system of a further experiment is SRSF-1. Put plainly: Western blot of SRSF-1 in HGPS fibroblasts. Particulars: for SRSF-1 levels, autophagy inhibitor alone: HGPS fibroblasts, chloroquine 50 μM, bafilomycin A1 100 nM. The format is cell-based, human. As to the method:
as §1
(In western blotting, separated proteins are transferred to a membrane and probed.)

Square brackets hold non-standard residues; d marks the D form. Peptide text beside a SMILES is read from it. * marks the point of attachment. Nva = CCC[C@H](N)C(=O)O; Cbz = O=C(OCc1ccccc1)*; CH2F = FC*

Method for proteasome: The proteasome activities were determined in HGPS and control cells by using the Proteasome-Glo™ 3-Substrate Cell-Based Assay System (Promega) that allows to measure the chymotrypsin-like, trypsin-like or caspase-like protease activity associated with the proteasome complex in cultured cells. The Proteasome-Glo™ Cell-Based Reagents each contain a specific luminogenic proteasome substrate. These peptide substrates are Suc-LLVY amino luciferin (Succinyl-leucine-leucine-valine-tyro sine-amino luciferin), Z-LRR-amino luciferin (Z-leucine-arginine-arginine-aminoluciferin) and Z-nLPnLD-amino luciferin (Z-norleucine-proline-norleucine-aspartate-amino luciferin) for the chymotrypsin-like, trypsin-like and caspase-like activities, respectively. Cells (10,000 cells/well) were cultured in 100 μl/well in a 96-well plate at 37° C., 5% CO2. The plate was allowed to equilibrate to 22° C. before 100 μl/well of substrate and luciferin detection reagent was added. The contents of the wells were mixed at 700 rpm using a plate shaker for 2 minutes and incubated at room temperature for 10 minutes. Following cleavage by the proteasome, the substrate for luciferase (amino luciferin) is released, allowing the luciferase reaction to proceed and produce light. Luminescence is determined as relative light units (RLUs) using a GloMax-Multi Detection System: Luminometer (Promega, USA).

For the compound `CCC[C@@H](C=O)NC(=O)[C@H](CC(C)C)NC(=O)[C@H](CC(C)C)NC(=O)OCc1ccccc1` [MG115, Z-Leu-Leu-Nva-H] (Cbz-Leu-Leu-[Nva]-aldehyde), the “progerin clearance / suppression of progerin accumulation compared with MG132” value in the experiment with progerin is “the same efficacy in suppressing progerin accumulation”. In the case of `CC(C)C[C@H](NC(=O)[C@H](CC(C)C)NC(=O)[C@H](CC(C)C)NC(=O)OCc1ccccc1)B(O)O` [MG262, Z-Leu-Leu-Leu-B(OH)2], in the experiment on progerin, the “progerin clearance / suppression of progerin accumulation compared with MG132” value is “less effective”. `CO/C1=C\C(C)=C\[C@@H](C)[C@@H](O)[C@@H](C)C/C(C)=C/C=C/[C@H](OC)[C@@H]([C@@H](C)[C@@H](O)[C@H](C)[C@@]2(O)C[C@@H](O)[C@H](C)[C@@H](C(C)C)O2)OC1=O` [bafilomycin A1]: on proteasome, the three proteasome activities entry is “not modified”. Moreover, in the experiment with progerin, the “effect on MG132-induced progerin clearance (co-treatment with MG132)” value (“effect” for short) is listed as “partially inhibited the effect of MG132” and the “progerin expression levels, inhibitor alone” value is recorded as “reduced expression levels of progerin”. Also, the “SRSF-1 levels, autophagy inhibitor alone” value in the experiment on SRSF-1 is given as “decrease SRSF-1 levels”. On to `CC(C)C[C@H](NC(=O)[C@H](Cc1ccccc1)NC(=O)c1cnccn1)B(O)O` [bortezomib], for which the “progerin clearance / suppression of progerin accumulation compared with MG132” value in the experiment with progerin is listed as “do not induce progerin clearance”. On the same count and under the same terms, the entry for `CC(C)C[C@H](NC(=O)[C@H](CCc1ccccc1)NC(=O)CN1CCOCC1)C(=O)N[C@@H](Cc1ccccc1)C(=O)N[C@@H](CC(C)C)C(=O)[C@@]1(C)CO1` [carfilzomib] is “do not induce progerin clearance”. As to `CC[C@H](C)[C@H](NC(=O)[C@H](CCC(=O)OC)NC(=O)[C@@H](NC(=O)OCc1ccccc1)C(C)C)C(=O)N[C@@H](CC(=O)OC)C(=O)CF` [caspase-6 inhibitor, Z-VEID-FMK] (Cbz-VE(OMe)ID(OMe)-CH2F), in the experiment with progerin, the “effect” value is on record as “progerin level remained below the HGPS control”. For `CCN(CC)CCCC(C)Nc1ccnc2cc(Cl)ccc12` (stereo not drawn) [chloroquine], the three proteasome activities result at proteasome is reported as “not modified”. Moreover, the “progerin expression levels, inhibitor alone” value with progerin was “reduced expression levels of progerin”. Further, in the experiment on SRSF-1, the “SRSF-1 levels, autophagy inhibitor alone” value is reported as “decrease SRSF-1 levels”. For the compound `CCC(=C/[C@H](C)C/C=C/C(C)=C/[C@@H](C)C(=O)[C@@H](C)[C@H](O)[C@@H](C)C/C(C)=C/C(=O)O)/C=C/[C@@H]1OC(=O)C=C[C@@H]1C` [leptomycin B], in the experiment with progerin, the “effect” value was “does not inhibit MG132 induced progerin clearance”. With `COC(=O)C[C@H](NC(=O)[C@H](C)NC(=O)[C@@H](NC(=O)OCc1ccccc1)C(C)C)C(=O)CF` [pan-caspase inhibitor, Z-VAD-FMK] (Cbz-Val-Ala-Asp(OMe)-CH2F), the “effect” value in the experiment on progerin is “increase of progerin that slightly reaches the control levels”. The “SRSF-1 protein expression, added during MG132 treatment” value in the experiment with SRSF-1 (HGPS cells, co-treatment with MG132) was “rescue of SRSF-1 protein expression”.
